Here are results for 4 molecules from the NIST ThermoML archive (doi:10.1021/je400576e).

Structures are written as SMILES. ± gives the expanded uncertainty stated by the source.

One may read the surface tension liquid-gas as the force per length acting along the surface. The viscosity is the internal friction of a fluid under shear. A word on the mass density: it is the mass of a sample divided by its volume.

The conditions of this data set: for viscosity / mass density: 101 kPa, Liquid; for mass density: Vibrating tube method.

For `CCOP(=O)([O-])OCC.CCn1cc[n+](C)c1` [1-ethyl-3-methylimidazolium diethyl phosphate], the surface tension liquid-gas runs as follows: (293.15 K) 34.78 ± 1.3 mN/m; (298.15 K) 34.46 ± 1.3 mN/m; (303.15 K) 34.19 ± 1.2 mN/m; (313.15 K) 33.54 ± 1.2 mN/m; (323.15 K) 33.15 ± 1.2 mN/m; (333.15 K) 32.81 ± 1.2 mN/m. For the same molecule, the viscosity is recorded as 537.03 ± 99 mPa·s (293.15 K); 320.89 ± 53 mPa·s (298.15 K); 284.34 ± 46 mPa·s (303.15 K); 150.96 ± 22 mPa·s (313.15 K); 90.02 ± 12 mPa·s (323.15 K); 58.02 ± 7.5 mPa·s (333.15 K). For the same molecule, the mass density runs as follows: (293.15 K) 1151 ± 10 kg/m3; (298.15 K) 1146 ± 9 kg/m3; (303.15 K) 1141 ± 9 kg/m3; (313.15 K) 1130 ± 9 kg/m3; (323.15 K) 1116 ± 9 kg/m3; (333.15 K) 1103 ± 9 kg/m3.

As for `COP(=O)([O-])OC.Cn1cc[n+](C)c1` [1,3-dimethylimidazolium dimethylphosphate], the surface tension liquid-gas reads like this: (293.15 K) 47.78 ± 1.5 mN/m; (298.15 K) 46.98 ± 1.5 mN/m; (303.15 K) 46.21 ± 1.4 mN/m; (313.15 K) 44.89 ± 1.4 mN/m; (323.15 K) 42.67 ± 1.4 mN/m; (333.15 K) 41.99 ± 1.3 mN/m. The viscosity reads like this: (293.15 K) 381.22 ± 65 mPa·s; (298.15 K) 336.74 ± 56 mPa·s; (303.15 K) 221.41 ± 34 mPa·s; (313.15 K) 178.66 ± 26 mPa·s; (323.15 K) 147.95 ± 21 mPa·s; (333.15 K) 133.73 ± 19 mPa·s. Moreover, the mass density runs as follows: (293.15 K) 1254 ± 9 kg/m3; (298.15 K) 1250 ± 9 kg/m3; (303.15 K) 1247 ± 9 kg/m3; (313.15 K) 1240 ± 9 kg/m3; (323.15 K) 1233 ± 9 kg/m3; (333.15 K) 1230 ± 8 kg/m3.

Take `CCCO` [propan-1-ol]: the surface tension liquid-gas is, setting by setting: (293.15 K) 23.67 ± 0.72 mN/m; (298.15 K) 23.31 ± 0.72 mN/m; (303.15 K) 22.81 ± 0.7 mN/m; (313.15 K) 22.19 ± 0.69 mN/m; (323.15 K) 21.34 ± 0.67 mN/m; (333.15 K) 20.66 ± 0.65 mN/m. For the same molecule, the viscosity (293.15 K) is 2.2 ± 0.28 mPa·s; the viscosity (298.15 K) was found to be 1.99 ± 0.26 mPa·s; the viscosity (303.15 K) turned out to be 1.73 ± 0.22 mPa·s; the viscosity (313.15 K) amounted to 1.38 ± 0.18 mPa·s; the viscosity (323.15 K) was determined as 1.12 ± 0.15 mPa·s; the viscosity (333.15 K) came out at 0.91 ± 0.12 mPa·s. Moreover, the mass density worked out at 804 ± 5 kg/m3 (293.15 K); 800.1 ± 5.1 kg/m3 (298.15 K); 796 ± 5 kg/m3 (303.15 K); 788 ± 5 kg/m3 (313.15 K); 780 ± 5 kg/m3 (323.15 K).

Take `CC(C)O` [propan-2-ol]: the surface tension liquid-gas turned out to be 21.28 ± 0.67 mN/m (293.15 K); 20.94 ± 0.66 mN/m (298.15 K); 20.54 ± 0.65 mN/m (303.15 K); 19.97 ± 0.64 mN/m (313.15 K); 18.87 ± 0.61 mN/m (323.15 K); 18.11 ± 0.59 mN/m (333.15 K). The viscosity runs as follows: (293.15 K) 2.41 ± 0.31 mPa·s; (298.15 K) 2.06 ± 0.27 mPa·s; (303.15 K) 1.79 ± 0.23 mPa·s; (313.15 K) 1.35 ± 0.17 mPa·s; (323.15 K) 1.03 ± 0.13 mPa·s; (333.15 K) 0.82 ± 0.11 mPa·s. The mass density (293.15 K) is recorded as 786 ± 5 kg/m3; the mass density (298.15 K) worked out at 781 ± 5 kg/m3; the mass density (303.15 K) came to 777 ± 5 kg/m3; the mass density (313.15 K) was 768 ± 5 kg/m3; the mass density (323.15 K) is 759 ± 5 kg/m3; the mass density (333.15 K) was found to be 750 ± 5 kg/m3.
